In US20110059043A1, “CHEMICAL COMPOUNDS” (priority 2009, published 2011):

Legend:
[1] = test system: HCV replicon cells Huh 9B; test: HCV replicon assay (luciferase); format: cell-based; settings: Hepatitis C virus, reduction of replicon level by 50% vs untreated cell control, 72 h
Description: (§1) HCV replicon cells Huh 9B (ReBlikon), containing the firefly luciferase—ubiquitin—neomycin phosphotransferase fusion protein and EMCV-IRES driven HCV polyprotein with cell culture adaptive mutations.
(§2) Cells were cultured at 37° C. in a 5% CO2 environment and split twice a week on seeding at 2×10^6 cells/flask on day 1 and 1×10^6 3 days later. G418 at 0.5 mg/ml was added to the culture medium but not the assay medium. The culture medium consisted of DMEM with […] glucose and glutamax (Gibco 61965-026) supplemented with 1×non-essential amino acids (Invitrogen 11140-035), penicillin (100 IU/ml)/streptomycin (100 μg/ml) (Invitrogen 15140-122), FCS (10%, 50 ml) and […] (Invitrogen 10131-027) & 10% Australian foetal calf serum (Invitrogen 10099-141).
(§3) A flask of cells was trypsinised and a cell count carried out. Cells were diluted to 100,000 cells/ml and 100 μl of this used to seed one opaque white 96-well plate (for the replicon assay) and one flat-bottomed clear plate (for the tox assay) for every five compounds to be tested for IC50. Wells G12 and H12 were left empty in the clear plate as the blank. Plates were then incubated at 37° C. in a 5% CO2 environment for 24 h.
(§4) On the following day compound dilutions are made up in medium at twice their desired final concentration in a clear round bottomed plate. All dilutions have a final DMSO concentration of 1%.
(§5) Once the dilution plate had been made up, controls and compounds were transferred to the assay plates (containing the cells) at 100 μl/well in duplicate wells. Exception: no compound was added to wells A1 and A2 of either plate and 100 μl of 1% DMSO was added to these instead. Plates were then incubated at 37° C. with 5% CO2 for 72 h.
At the end of the incubation time, the cells in the white plate were harvested by washing in PBS (100 μL per well) and gently tapping dry before addition of […] of lysis buffer (25 mM tris-phosphate, 8 mM MgCl2, 1 mM DTT, 1% Triton X-100, 15% glycerol. pH to 7.8 using KH2PO4 prior to triton and glycerol addition. Substrate was prepared: 23.5 mM beetle luciferin (Promega E1603), 26 mM ATP (Sigma O-2060) in […] Tris buffer pH 7.8 aliquoted and stored at −80° C. was thawed and diluted 1:50 in luciferase assay buffer (20 mM Tricine (Sigma T-0377), 1.07 mM magnesium carbonate hydroxide (Sigma M-5671), 0.1 mM EDTA (Sigma E-5134), 2.67 mM MgSO4(BDH 101514Y), 33.3 mM dithiothreitol (Sigma 150460) pH 7.8).
The M injector of the microplate luminometer (Lmax, Molecular Devices) was primed with 5×300 μl injections of the diluted substrate. After 5-60 min incubation in lysis buffer at room temperature, a plate was inserted into the luminometer and 100 μl luciferase assay reagent was added by the injector on the luminometer. The signal was measured using a 1 second delay followed by a 4 second measurement programme. The IC50, the concentration of the drug required for reducing the replicon level by 50% in relation to the untreated cell control value, can be calculated from the plot of the percentage reduction of the luciferase activity vs. drug concentration.

[2] = target: T1, Recombinant HCV polymerase (BK strain) (Hepatitis C virus genotype 1b, UniProt P26663); test: HCV polymerase enzyme assay (radiometric [33P]-UTP incorporation); format: biochemical, HCV 1b
T1 construct: Recombinant HCV polymerase (BK strain) was expressed and purified from E. coli with a 21 amino acid C-terminal deletion; His6; made in house; host or cells: E. coli
Description: Compounds were tested for inhibition of HCV polymerase using a radiometric [^33P]-UTP incorporation assay and a biotinylated U13:PolyA primer:template RNA substrate.
Recombinant HCV polymerase (BK strain) was expressed and purified from E. coli with a 21 amino acid C-terminal deletion and a His6-tag. The general assay buffer consisted of 20 mM Tris (pH 7.5), 25 mM KCl, 5 mM MgCl2, 3 mM DTT, 0.5 mg/ml BSA, 0.01% Tween20. The standard reaction, in 96 well plates, contained 10 μl of diluted compound, 50 μl of substrate and 40 μl of enzyme. Compounds, supplied as 10 mM stocks in DMSO, were diluted initially in neat DMSO, and subsequently buffer was added to give a DMSO concentration of 30%; 10 μl of this was added to the assay plate to give a final concentration in the 100 μl assay of 3% DMSO. The biotinylated U13:PolyA RNA substrate was pre-annealed with 40 μM 5′-biotinylated U13 (Dharmacon) and 213 μg/ml PolyA (Amersham Biosciences) in water incubated at 70° C. for 5 minutes before being cooled on ice. Substrate (50 μl) was added in buffer to give a final concentration in the 100 μl assay of 125 nM biotinylated U13:0.63 μg/ml PolyA and 200 nM UTP with 0.4 μCi [^33P]-UTP per well (Perkin Elmer). The reaction was initiated by the addition of 40 μl of enzyme in buffer to give 100 nM final concentration. The reaction was incubated at 25° C. for 100 minutes and then stopped by addition of 100 μl of 100 mM EDTA. The samples were then transferred to 96 well Streptavidin-coated FlashPlates (Perkin Elmer) and incubated at room temperature for ˜1 hour to allow binding to occur. The plates were then washed three times with phosphate-buffered saline containing 0.05% Tween20 in an automated plate washer to remove unincorporated [^33P]-UTP, and then counted in a
Each plate included a set of positive controls (no compound, maximum signal) and negative controls (no enzyme, minimum signal) and in each run at least one reference is compound was included to validate the assay. The IC50, concentration required to inhibit the enzyme activity by 50%, was calculated using an 8-point IC50 curve and fitted using the program XLfit (IDBS).

[3] = test system: HCV replicon cells Huh 9B; format: cell-based; settings: concentration reducing total cell area by 50% relative to DMSO controls; 72 h
Description: as §1, §2, §3, §4, §5
The clear plate was stained with 100 μl 0.5% methylene blue in 50% ethanol at room temperature for lh, followed by solvation of the absorbed methylene blue in 100 μl per well of 1% lauroylsarcosine. Absorbance of the plate was measured on a microplate spectrophotometer (Molecular Devices) and the absorbance for each concentration of compound expressed as a proportion of the relative DMSO control. The TD50, the concentration of drug required to reduce the total cell area by 50% relative to the DMSO controls, can be calculated by plotting the absorbance at 620 nm minus background against drug concentration.

T1 sequence (P26663 2420-2989): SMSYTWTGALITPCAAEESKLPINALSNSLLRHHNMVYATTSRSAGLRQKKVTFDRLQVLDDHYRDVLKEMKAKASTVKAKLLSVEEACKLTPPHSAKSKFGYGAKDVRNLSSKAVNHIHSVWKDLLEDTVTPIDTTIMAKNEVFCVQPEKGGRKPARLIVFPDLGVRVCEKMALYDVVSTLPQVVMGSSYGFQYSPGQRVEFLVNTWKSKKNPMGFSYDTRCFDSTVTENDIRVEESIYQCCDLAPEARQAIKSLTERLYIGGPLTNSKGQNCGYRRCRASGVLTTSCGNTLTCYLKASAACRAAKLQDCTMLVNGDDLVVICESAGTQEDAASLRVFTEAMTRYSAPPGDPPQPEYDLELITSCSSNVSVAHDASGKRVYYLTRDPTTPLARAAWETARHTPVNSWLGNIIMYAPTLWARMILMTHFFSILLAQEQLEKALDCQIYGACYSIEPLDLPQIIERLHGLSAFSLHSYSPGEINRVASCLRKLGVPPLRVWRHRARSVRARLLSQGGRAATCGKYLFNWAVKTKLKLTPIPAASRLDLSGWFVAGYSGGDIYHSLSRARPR

| SMILES | IC50 [1] | IC50 [2] | Replicon Assay Value TD50 [3] |
| --- | --- | --- | --- |
| COCCOc1ncc(F)cc1C(=O)NC1N=C(c2c(Cl)cc(Cl)cc2Cl)c2ccccc2NC1=O (stereo not drawn) [Example 30, 5-Fluoro-2-(2-methoxyethoxy)-N-(2-oxo-5-(2,4,6-trichlorophenyl)-2,3-dihydro-1H-benzo[e][1,4]diazepin-3-yl)nicotinamide] | 46.4 nM | 116 nM | >25 µM |
| COCCOc1ncccc1C(=O)NC1N=C(c2c(Cl)cc(Cl)cc2Cl)c2ccccc2NC1=O (stereo not drawn) [Example 31, 2-(2-Methoxyethoxy)-N-(2-oxo-5-(2,4,6-trichlorophenyl)-2,3-dihydro-1H-benzo[e][1,4]diazepin-3-yl)nicotinamide] | 234 nM | 248 nM | >25 µM |
| COCCOc1ncc(Cl)cc1C(=O)NC1N=C(c2c(Cl)cc(Cl)cc2Cl)c2ccccc2NC1=O (stereo not drawn) [Example 32, 5-Chloro-2-(2-methoxyethoxy)-N-(2-oxo-5-(2,4,6-trichlorophenyl)-2,3-dihydro-1H-benzo[e][1,4]diazepin-3-yl)nicotinamide] | 136 nM | 178 nM | >25 µM |
| COCCOc1ncc(Br)cc1C(=O)NC1N=C(c2c(Cl)cc(Cl)cc2Cl)c2ccccc2NC1=O (stereo not drawn) [Example 33, 5-Bromo-2-(2-methoxyethoxy)-N-(2-oxo-5-(2,4,6-trichlorophenyl)-2,3-dihydro-1H-benzo[e][1,4]diazepin-3-yl)nicotinamide] | 487 nM | 265 nM | >25 µM |
| CCOCCOc1ncc(F)cc1C(=O)NC1N=C(c2c(Cl)cc(Cl)cc2Cl)c2ccccc2NC1=O (stereo not drawn) [Example 34, 2-(2-Ethoxyethoxy)-5-fluoro-N-(2-oxo-5-(2,4,6-trichlorophenyl)-2,3-dihydro-1H-benzo[e][1,4]diazepin-3-yl)nicotinamide] | 14.1 nM | 91 nM | 11.884 µM |
| CO[C@@H](C)COc1ncc(F)cc1C(=O)NC1N=C(c2c(Cl)cc(Cl)cc2Cl)c2ccccc2NC1=O (stereo partly drawn) [Example 35, 5-Fluoro-2-((S)-2-methoxypropoxy)-N-(2-oxo-5-(2,4,6-trichlorophenyl)-2,3-dihydro-1H-benzo[e][1,4]diazepin-3-yl)nicotinamide] | 184 nM | 89.7 nM | 24.614 µM |
| CC(C)OCCOc1ncc(F)cc1C(=O)NC1N=C(c2c(Cl)cc(Cl)cc2Cl)c2ccccc2NC1=O (stereo not drawn) [Example 36, 5-Fluoro-2-(2-isopropoxyethoxy)-N-(2-oxo-5-(2,4,6-trichlorophenyl)-2,3-dihydro-1H-benzo[e][1,4]diazepin-3-yl)nicotinamide] | 308 nM | 244 nM | 13.55 µM |
| COCCOCCOc1ncc(F)cc1C(=O)NC1N=C(c2c(Cl)cc(Cl)cc2Cl)c2ccccc2NC1=O (stereo not drawn) [Example 37, 5-Fluoro-2-(2-(2-methoxyethoxy)ethoxy)-N-(2-oxo-5-(2,4,6-trichlorophenyl)-2,3-dihydro-1H-benzo[e][1,4]diazepin-3-yl)nicotinamide] | 263 nM | 102 nM | 23.09 µM |
| COCCCOc1ncc(F)cc1C(=O)NC1N=C(c2c(Cl)cc(Cl)cc2Cl)c2ccccc2NC1=O (stereo not drawn) [Example 38, 5-Fluoro-2-(3-methoxypropoxy)-N-(2-oxo-5-(2,4,6-trichlorophenyl)-2,3-dihydro-1H-benzo[e][1,4]diazepin-3-yl)nicotinamide] | 15.7 nM | 79 nM | 22.269 µM |
| CCOCCCOc1ncc(F)cc1C(=O)NC1N=C(c2c(Cl)cc(Cl)cc2Cl)c2ccccc2NC1=O (stereo not drawn) [Example 39, 2-(3-Ethoxypropoxy)-5-fluoro-N-(2-oxo-5-(2,4,6-trichlorophenyl)-2,3-dihydro-1H-benzo[e][1,4]diazepin-3-yl)nicotinamide] | 66.3 nM | 95 nM | 11.83 µM |
